# Test results taken from patent publication US12655116B2, “Substituted isophthalic acid diamides” (Bayer Aktiengesellschaft, priority 2020, dated 2026).
# Assays:
# VERPE [1] = experiment: Pre-emergence herbicidal action against VERPE; assay type: in vivo, Veronica persica
# Procedure, shortened: (§1)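 Visual rating at 3 weeks vs untreated pots; 0–100% scale, 100% = plants died. Treatment: aqueous WP/EC spray onto covering soil, 600–800 l/ha, 0.2% wetter, seeds in sandy loam.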
# ABUTH [2] = experiment: Pre-emergence herbicidal action against ABUTH; assay type: in vivo, Abutilon theophrasti
# Procedure, shortened: as §1
# AMARE [3] = experiment: Pre-emergence herbicidal action against AMARE; assay type: in vivo, Amaranthus retroflexus
# Procedure, shortened: as §1
# PHBPU [4] = experiment: Post-emergence herbicidal action against PHBPU; assay type: in vivo, Pharbitis purpurea; conditions: dosage 20 g/ha
# Procedure, shortened: (§2)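 Greenhouse pot plants in sandy loam were sprayed at the one-leaf stage, 2 to 3 weeks after sowing, with WP or EC formulations as aqueous suspension or emulsion (600 to 800 l/ha water, 0.2% wetting agent). About 3 weeks later, damage was scored visually against untreated controls as % action (100% = dead, 0% = like control).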
# DIGSA [5] = experiment: Pre-emergence herbicidal action against DIGSA; assay type: in vivo, Digitaria sanguinalis
# Procedure, shortened: as §1
# VERPE [6] = experiment: Post-emergence herbicidal action against VERPE; assay type: in vivo, Veronica persica
# Procedure, shortened: as §2
# VIOTR [7] = experiment: Post-emergence herbicidal action against VIOTR; assay type: in vivo, Viola tricolor
# Procedure, shortened: as §2
# ECHCG [8] = experiment: Pre-emergence herbicidal action against ECHCG; assay type: in vivo, Echinochloa crus-galli; conditions: 80 g/ha
# Procedure, shortened: as §1
# ALOMY = experiment: Pre-emergence herbicidal action against ALOMY; assay type: in vivo, Alopecurus myosuroides; conditions: 80 g/ha, pre-emergence, scored visually after 3 weeks vs untreated controls (100% = plants have died, 0% = like control plants)
# Procedure, shortened: as §1
# SETVI [9] = experiment: Post-emergence herbicidal action against SETVI; assay type: in vivo, Setaria viridis
# Procedure, shortened: as §2
# DIGSA [10] = experiment: Post-emergence herbicidal action against DIGSA; assay type: in vivo, Digitaria sanguinalis; conditions: Digitaria sanguinalis, 504 h
# Procedure, shortened: as §2
# AMARE [11] = experiment: Post-emergence herbicidal action against AMARE; assay type: in vivo, Amaranthus retroflexus; conditions: Amaranthus retroflexus, 504 h, 20 g/ha, visual assessment about 3 weeks after treatment, 100% = plants have died, 0% = like control plants
# Procedure, shortened: as §2
# POLCO = experiment: Pre-emergence herbicidal action against POLCO; assay type: in vivo, Polygonum convolvulus; conditions: dosage 80 g/ha
# Procedure, shortened: as §1
# PHBPU [12] = experiment: Pre-emergence herbicidal action against PHBPU; assay type: in vivo, Pharbitis purpurea
# Procedure, shortened: as §1
# MATIN [13] = experiment: Pre-emergence herbicidal action against MATIN; assay type: in vivo, Matricaria inodora
# Procedure, shortened: as §1
# AVEFA = experiment: Pre-emergence herbicidal action against AVEFA; assay type: in vivo, Avena fatua; conditions: 80 g/ha, pre-emergence
# Procedure, shortened: as §1
# ECHCG [14] = experiment: Post-emergence herbicidal action against ECHCG; assay type: in vivo, Echinochloa crus-galli
# Procedure, shortened: as §2
# SETVI [15] = experiment: Pre-emergence herbicidal action against SETVI; assay type: in vivo, Setaria viridis
# Procedure, shortened: as §1
# ABUTH [16] = experiment: Post-emergence herbicidal action against ABUTH; assay type: in vivo, Abutilon theophrasti; conditions: visual assessment about 3 weeks after treatment vs untreated controls
# Procedure, shortened: as §2
# VIOTR [17] = experiment: Pre-emergence herbicidal action against VIOTR; assay type: in vivo, Viola tricolor
# Procedure, shortened: as §1
# MATIN [18] = experiment: Post-emergence herbicidal action against MATIN; assay type: in vivo, Matricaria inodora
# Procedure, shortened: as §2
# [19] = Setaria viridis, 504 h, dosage 20 g/ha
# [20] = Tripleurospermum inodorum, 504 h, dosage 20 g/ha
# [21] = 80 g/ha, scored visually after 3 weeks vs untreated controls (100% = plants have died, 0% = like control plants)
smiles,measurement,setting,value
CNC(=O)c1c(C(F)(F)F)ccc(C(=O)Nc2nnnn2C)c1OC [Example 1-56],pest or weed control at 80 g/ha,"VERPE [1]; Veronica persica, 504 h, dosage 80 g/ha",90%
same,pest or weed control at 80 g/ha,"ABUTH [2]; Abutilon theophrasti, 504 h, 80 g/ha, scored visually after 3 weeks vs untreated controls (100% = plants have died, 0% = like control plants)",90%
same,pest or weed control at 20 g/ha,"AMARE [3]; Amaranthus retroflexus, 504 h, 20 g/ha, scored visually after 3 weeks vs untreated controls, 100% = plants have died, 0% = like control plants",100%
same,pest or weed control at 80 g/ha,"AMARE [3]; Amaranthus retroflexus, 504 h, 80 g/ha, scored visually after 3 weeks vs untreated controls, 100% = plants have died, 0% = like control plants",100%
same,pest or weed control at 20 g/ha,"PHBPU [4]; Ipomoea purpurea, 504 h",80%
same,pest or weed control at 80 g/ha,"DIGSA [5]; Digitaria sanguinalis, 504 h, dosage 80 g/ha",80%
same,pest or weed control at 20 g/ha,"VERPE [6]; Veronica persica, 504 h, 20 g/ha",90%
same,pest or weed control at 5 g/ha,"VIOTR [7]; Viola tricolor, 504 h, 5 g/ha",100%
same,pest or weed control at 20 g/ha,"VIOTR [7]; Viola tricolor, 504 h, 20 g/ha",100%
same,pest or weed control at 80 g/ha,"ECHCG [8]; Echinochloa crus-galli, 504 h",90%
same,pest or weed control at 80 g/ha,"ALOMY; Alopecurus myosuroides, 504 h",90%
same,pest or weed control at 5 g/ha,"SETVI [9]; Setaria viridis, 504 h, dosage 5 g/ha",100%
same,pest or weed control at 20 g/ha,SETVI [9]; [19],100%
same,pest or weed control at 5 g/ha,DIGSA [10]; 5 g/ha,90%
same,pest or weed control at 20 g/ha,DIGSA [10]; 20 g/ha,100%
same,pest or weed control at 20 g/ha,AMARE [11],100%
same,pest or weed control at 80 g/ha,"POLCO; Fallopia convolvulus, 504 h",90%
same,pest or weed control at 20 g/ha,"PHBPU [12]; Ipomoea purpurea, 504 h, dosage 20 g/ha",80%
same,pest or weed control at 80 g/ha,"PHBPU [12]; Ipomoea purpurea, 504 h, dosage 80 g/ha",80%
same,pest or weed control at 20 g/ha,MATIN [13]; [20],90%
same,pest or weed control at 80 g/ha,"MATIN [13]; Tripleurospermum inodorum, 504 h, dosage 80 g/ha",90%
same,pest or weed control at 80 g/ha,"AVEFA; Avena fatua, 504 h",80%
same,pest or weed control at 5 g/ha,"ECHCG [14]; Echinochloa crus-galli, 504 h, dosage 5 g/ha",80%
same,pest or weed control at 20 g/ha,"ECHCG [14]; Echinochloa crus-galli, 504 h, dosage 20 g/ha",90%
same,pest or weed control at 20 g/ha,SETVI [15]; [19],90%
same,pest or weed control at 80 g/ha,"SETVI [15]; Setaria viridis, 504 h, dosage 80 g/ha",100%
same,pest or weed control at 5 g/ha,"ABUTH [16]; Abutilon theophrasti, 504 h, dosage 5 g/ha",80%
same,pest or weed control at 20 g/ha,"ABUTH [16]; Abutilon theophrasti, 504 h, dosage 20 g/ha",100%
same,pest or weed control at 20 g/ha,"VIOTR [17]; Viola tricolor, 504 h, dosage 20 g/ha",100%
same,pest or weed control at 80 g/ha,"VIOTR [17]; Viola tricolor, 504 h, dosage 80 g/ha",100%
same,pest or weed control at 20 g/ha,MATIN [18]; [20],90%
CCNC(=O)c1c(C(F)F)ccc(C(=O)Nc2nnnn2CC)c1OC [Example 2-73],Pre-emergence action against VERPE in %,VERPE [1]; dosage 20 g/ha,90%
same,Pre-emergence action against VERPE in %,VERPE [1]; dosage 80 g/ha,90%
same,Pre-emergence action against ABUTH (herbicidal activity),ABUTH [2]; [21],100%
same,Pre-emergence action against ABUTH (herbicidal activity in percent),"ABUTH [2]; dosage 20 g/ha, scored visually after 3 weeks vs untreated controls, 100% = plants have died, 0% = like control plants",100%
same,Pre-emergence action against AMARE in %,"AMARE [3]; 20 g/ha, scored visually after 3 weeks vs untreated controls, 100% = plants have died, 0% = like control plants",100%
same,Pre-emergence action against AMARE in %,AMARE [3]; [21],100%
same,Post-emergence action against PHBPU in %,PHBPU [4],80%
same,Pre-emergence action against DIGSA in %,DIGSA [5]; dosage 20 g/ha,90%
same,Pre-emergence action against DIGSA in %,DIGSA [5]; dosage 80 g/ha,100%
same,Post-emergence action against VERPE in %,VERPE [6]; 5 g/ha,80%
same,Post-emergence action against VERPE in %,VERPE [6]; 20 g/ha,90%
same,Post-emergence action against VIOTR in %,VIOTR [7]; 20 g/ha,100%
same,Pre-emergence action against ECHCG in %,ECHCG [8],100%
same,Pre-emergence action against ALOMY (herbicidal activity),ALOMY,100%
same,Post-emergence action against SETVI in %,SETVI [9]; dosage 20 g/ha,100%
same,Pre-emergence action against POLCO in %,POLCO,80%
same,Pre-emergence action against PHBPU in %,PHBPU [12]; dosage 80 g/ha,80%
same,Pre-emergence action against MATIN in %,MATIN [13]; dosage 20 g/ha,100%
same,Pre-emergence action against MATIN in %,MATIN [13]; dosage 80 g/ha,100%
same,Pre-emergence action against AVEFA in %,AVEFA,80%
same,Post-emergence action against ECHCG in %,ECHCG [14]; dosage 5 g/ha,80%
same,Post-emergence action against ECHCG in %,ECHCG [14]; dosage 20 g/ha,80%
same,Pre-emergence action against SETVI in %,SETVI [15]; dosage 80 g/ha,100%
same,Post-emergence action against ABUTH in %,ABUTH [16]; dosage 5 g/ha,80%
same,Post-emergence action against ABUTH in %,ABUTH [16]; dosage 20 g/ha,80%
same,Pre-emergence action against VIOTR in %,VIOTR [17]; dosage 20 g/ha,90%
same,Pre-emergence action against VIOTR in %,VIOTR [17]; dosage 80 g/ha,100%
same,Post-emergence action against MATIN in %,MATIN [18]; dosage 5 g/ha,80%
same,Post-emergence action against MATIN in %,MATIN [18]; dosage 20 g/ha,80%
